{"source": "paper PMC7988488", "about": "(The Journal of Biological Chemistry, 2021)", "key": {"[1]": {"system": "capsaicin-induced nociceptive behavior", "assay": "Capsaicin-induced nociception", "format": "in vivo, mice", "conditions": "100 μg/kg i.m., 30 min before intraplantar capsaicin 1 μg; 5-min observation", "protocol": "On the day of testing, ICR male mice were treated by intramuscular injection with equal volume of saline, H4 (10 and 30 μg/kg i.m.), or a positive control in the form of the potent Nav1.7 antagonist PF-05198007 (100 μg/kg i.m.) ([35]). Thirty minutes following test article treatment, animals were subjected to intraplantar injection of 1 μg of capsaicin in a volume of 20 μl of 5% EtOH in saline into the right hind paw. Immediately after the capsaicin injection, the total time spent engaged in licking of the injected hind paw was manually recorded over a 5-min period. All dosing and scoring activities were conducted by experimenters who were fully blinded to treatment conditions."}, "acute heat pain response": {"system": "acute heat pain response", "format": "in vivo, mice"}, "[2]": {"system": "formalin-induced spontaneous pain behaviors", "format": "in vivo, mice"}, "[3]": {"system": "CFA-induced mechanical allodynia", "design": "species or system mice", "conditions": "mouse, in vivo"}, "hNav1.7 mutants": {"system": "hNav1.7 mutants", "format": "cell-based, human"}}, "note": "Where two headings read alike, the source gives them in different places.", "data": [{"molecule": "Nc1[nH]ncc1-c1cc(Cl)ccc1Oc1cc(F)c(S(=O)(=O)Nc2cscn2)cc1Cl", "note": "[PF-05089771]", "values": [{"measurement": "capsaicin-elicited paw licking response (in words)", "setting": "[1]", "value": "significantly blocked"}]}, {"molecule": "CN1CC[C@]23c4c5ccc(O)c4O[C@H]2[C@@H](O)C=C[C@H]3[C@H]1C5", "note": "[morphine]", "values": [{"measurement": "hot plate latency", "setting": "acute heat pain response; mouse, in vivo, SD", "value": "17.0 ± 0.9", "unit": "s"}, {"measurement": "paw licking time, early phase", "setting": "[2]; mouse, in vivo", "value": "110.3 ± 12.9", "unit": "s"}, {"measurement": "paw licking time, late phase", "setting": "[2]; mouse, in vivo", "value": "86.7 ± 8.5", "unit": "s"}, {"measurement": "duration of anti-allodynic effect", "setting": "[3]", "value": 2, "unit": "h"}, {"measurement": "paw withdrawal threshold compared with saline (in words)", "setting": "[3]", "value": "significantly enhanced"}]}, {"molecule": "Hainantoxin-III [Compound 1]", "values": [{"measurement": "hot plate latency", "setting": "acute heat pain response; 100 μg/kg i.p., 1 h after treatment, plate 55 °C, mean ± SD, n = 5 to 8", "value": "15.1 ± 0.9", "unit": "s"}, {"measurement": "paw licking time, early phase", "setting": "[2]; 100 μg/kg i.m., 30 min before formalin, early phase 0-10 min, control 145.2 ± 6.9 s", "value": "68.1 ± 9.7", "unit": "s"}, {"measurement": "paw licking time, late phase", "setting": "[2]; 100 μg/kg i.m., 30 min before formalin, late phase 15-35 min, control 224 ±16.7 s", "value": "71.0 ± 13.0", "unit": "s"}, {"measurement": "affinity for hNav1.7 mutants versus WT hNav1.7 (in words)", "setting": "hNav1.7 mutants", "value": "did not change significantly"}]}]}
